Data taken from US11649259B2, “Polymorphic forms of deoxycytidine, compositions comprising the same and uses” (ZOGENIX MDS, INC., priority 2019, dated 2023).

What was measured:
[1] = Stability of Form B by XRPD pattern after storage (no conversion to Form A); assay type: physicochemical
Excerpt: “Stability”, as used herein, can be measured by confirming the Form B XRPD pattern of the material after a given storage time. Conversion of Form B to Form A deoxycytidine, as determined by)(RFD, indicates instability. Stability can also be measured by confirming compliance with the test attribute standards as outlined in Example 4. Test attributes include physical appearance, IR trace, HPLC trace for active and impurities, water content, residual solvent content, elemental impurities and microbial growth. One or more of these attributes can be measured after storage over a given period of time, e.g. 6 months, 12 months or more, and under various conditions, e.g. 25±2° C./60±5% relative humidity or 40±2° C./75±5% relative humidity).
XRPD data for a mixture of A and B dC isoforms (2DC (A+B mix)), the B isoform produced in the small-scale manufacturing run (2DC(7)/S-P-17001 initial) and the isolated A isoform is provided in Table 2. The stability Form B was confirmed by determining the XRPD after 12 months of storage (2DC(7)/S-P-17001 12 month).

[2] = Form B deoxycytidine 12-month stability study (Example 4); assay type: physicochemical; conditions: four lots; long-term storage 25±2° C./60±5% relative humidity and accelerated storage 40±2° C./75±5% relative humidity; measured at 3, 6, 9 and 12 months
Procedure: A study was conducted to determine the stability of Form B deoxycytidine prepared by the methods in Example 1 over a 12-month period. Four lots of material were studied: (1) and (2) were packaged in a polyethylene (PE) bag sealed with a cable tie, (3) was packed in a PE bag with silica gel sealed with a cable tie, and (4) was packaged in a PE drum sealed with a cap. […]
All attributes were measured initially (0 months) to confirm compliance with the standards above. Appearance, IR, HPLC and water content were then measured at 3, 6, 9 and 12 months to confirm compliance. Microbial content was measured again at 12 months.

Nc1ccn([C@H]2C[C@H](O)[C@@H](CO)O2)c(=O)n1 [Form B deoxycytidine, Deoxycytidine (2′-Deoxycytidine, dC)]
stability of Form B, XRPD pattern after storage ([1]; after 12 months of storage, lot 2DC(7)/S-P-17001, 4 kg scale): confirmed
time for which the form is stable ([1]; stored in a sealed container at e.g. room temperature): at least 6 months
changes in test attributes (appearance, IR, HPLC, water content, microbial content) from initial to 12 months [2]: no significant changes
